# Patent publication US5607926A, “Cephalosporin antibiotics” (Microcide Pharmaceuticals, Inc., priority 1995, dated 1997)
# Structures can show the parent of a compound that is named as a salt. Where two headings read alike, the source gives them in different places.
# Columns and labels:
# Type in all cases: cell-based
# [1] = system: S. aureus ATCC 25923; assay: In vitro antibacterial evaluation, MIC by agar dilution, S. aureus ATCC 25923; details: Staphylococcus aureus, ATCC25923
# How it was run: (§1)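 In this standardized agar dilution format, compound was dissolved in PBS pH 7.2, with Tween 20 or DMSO as needed, and mixed into molten Mueller-Hinton agar to final levels of 128 down to ≤0.25 μg/mL. About 10^4 cfu were spotted per isolate, and MIC was recorded after 16-20 h at 35°-36° C.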
# [2] = system: S. aureus 76 (Meth^R)(lac^+); assay: In vitro antibacterial evaluation, MIC by agar dilution, S. aureus 76; details: Staphylococcus aureus, read-out: MIC
# How it was run: as §1
# [3] = system: E. faecalis ATCC 29212; assay: In vitro antibacterial evaluation, MIC by agar dilution, E. faecalis ATCC 29212; details: Enterococcus faecalis, ATCC29212
# How it was run: as §1
# [4] = system: S. aureus ATCC 29213; assay: In vitro antibacterial evaluation, MIC by agar dilution, S. aureus ATCC 29213; details: Staphylococcus aureus, ATCC29213
# How it was run: as §1
# [5] = system: P. aeruginosa ATCC 27853; assay: In vitro antibacterial evaluation, MIC by agar dilution, P. aeruginosa ATCC 27853; details: Pseudomonas aeruginosa, ATCC27853, read-out: MIC
# How it was run: as §1
# [6] = system: E. coli ATCC 25922; assay: In vitro antibacterial evaluation, MIC by agar dilution, E. coli ATCC 25922; details: Escherichia coli, ATCC25922, read-out: MIC
# How it was run: as §1
# [7] = system: S. haemolyticus (Meth^R); assay: In vitro antibacterial evaluation, MIC by agar dilution, S. haemolyticus; details: Staphylococcus haemolyticus, read-out: MIC
# How it was run: as §1
# [8] = system: S. aureus Col8A (Meth^S)(lac^-); assay: In vitro antibacterial evaluation, MIC by agar dilution, S. aureus Col8A; details: Staphylococcus aureus
# How it was run: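 Log-phase isolates were spot-inoculated at about 10^4 cfu onto Mueller-Hinton agar carrying duplicate two-fold compound levels, 128 μg/mL to ≤0.25 μg/mL, following NCCLS (1991). Plates were read after 16-20 h at 35°-36° C. The lowest growth-inhibiting concentration gave the MIC (μg/ml).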
# [9] = system: E. faecium ATCC 35667; assay: In vitro antibacterial evaluation, MIC by agar dilution, E. faecium ATCC 35667; details: Enterococcus faecium, ATCC35667, read-out: MIC
# How it was run: as §1
# [10] = system: S. epidermidis ATCC 31432; assay: In vitro antibacterial evaluation, MIC by agar dilution, S. epidermidis ATCC 31432; details: Staphylococcus epidermidis, ATCC31432
# How it was run: as §1
# [11] = E. faecalis ATCC 29212, read-out: MIC
Structure (SMILES),MIC [1],MIC [2],"MIC [3, 11]",MIC [4],MIC [5],MIC [6],MIC [7],MIC [8],MIC [9],MIC [10],"MIC ([1]; S. aureus ATCC 25923, read-out: MIC)","MIC ([4]; S. aureus ATCC 29213, read-out: MIC)","MIC ([10]; S. epidermidis ATCC 31432, read-out: MIC)",MIC [3]
"O=C(Cc1ccccc1)N[C@@H]1C(=O)N2C(C(=O)O)=C(Sc3ccccc3CSc3ncn[nH]3)CS[C@H]12 [Cmpd 67, (7R)-7-[(Phenylacetyl)amino]-3-(2-(1,2,4-triazol-5-ylthiomethyl)phenylthio)-3-cephem-4-carboxylic acid]",< 0.25 µg/mL,16 µg/mL,2 µg/mL,< 0.25 µg/mL,> 32 µg/mL,> 32 µg/mL,16 µg/mL,< 0.25 µg/mL,2 µg/mL,< 0.25 µg/mL,–,–,–,–
O=C1CNC(SCc2ccccc2SC2=C(C(=O)O)N3C(=O)[C@@H](NC(=O)Cc4ccccc4)[C@H]3SC2)=N1 [Cmpd 68],< 0.25 µg/mL,16 µg/mL,4 µg/mL,< 0.25 µg/mL,> 32 µg/mL,> 32 µg/mL,32 µg/mL,< 0.25 µg/mL,4 µg/mL,< 0.25 µg/mL,–,–,–,–
"CN(C)C(SCc1ccccc1SC1=C(C(=O)[O-])N2C(=O)[C@@H](NC(=O)Cc3ccccc3)[C@H]2SC1)=[N+](C)C [Cmpd 69, (7R)-7-[(Phenylacetyl)amino]-3-(2-tetramethylisothiouroniummethylphenylthio)-3-cephem-4-carboxylate, inner salt]",< 0.25 µg/mL,16 µg/mL,2 µg/mL,< 0.25 µg/mL,> 32 µg/mL,> 32 µg/mL,32 µg/mL,< 0.25 µg/mL,2 µg/mL,< 0.25 µg/mL,–,–,–,–
O=C(Cc1ccccc1)N[C@@H]1C(=O)N2C(C(=O)O)=C(Sc3ccccc3CSc3ccncc3)CS[C@H]12 [Cmpd 70],< 0.25 µg/mL,16 µg/mL,0.5 µg/mL,< 0.25 µg/mL,> 32 µg/mL,> 32 µg/mL,32 µg/mL,< 0.25 µg/mL,2 µg/mL,< 0.25 µg/mL,–,–,–,–
Cn1nnnc1SCc1ccccc1SC1=C(C(=O)O)N2C(=O)[C@@H](NC(=O)Cc3ccccc3)[C@H]2SC1 [Cmpd 71],< 0.25 µg/mL,> 32 µg/mL,1 µg/mL,< 0.25 µg/mL,> 32 µg/mL,> 32 µg/mL,> 32 µg/mL,< 0.25 µg/mL,2 µg/mL,< 0.25 µg/mL,–,–,–,–
O=C(Cc1ccccc1)N[C@@H]1C(=O)N2C(C(=O)O)=C(Sc3ccccc3CSC3=NCCN3)CS[C@H]12 [Cmpd 72],< 0.25 µg/mL,16 µg/mL,1 µg/mL,< 0.25 µg/mL,> 32 µg/mL,> 32 µg/mL,32 µg/mL,< 0.25 µg/mL,2 µg/mL,< 0.25 µg/mL,–,–,–,–
"C[n+]1ccc(SCc2ccccc2SC2=C(C(=O)[O-])N3C(=O)[C@@H](NC(=O)Cc4ccccc4)[C@H]3SC2)cc1 [Cmpd 73, (7R)-7-[(Phenylacetyl)amino]-3-(2-(N-methylpyridin-4-ium)thiomethyl)phenylthio)-3-cephem-4-carboxylate, inner salt]",< 0.25 µg/mL,16 µg/mL,0.5 µg/mL,< 0.25 µg/mL,> 32 µg/mL,> 32 µg/mL,32 µg/mL,< 0.25 µg/mL,1 µg/mL,< 0.25 µg/mL,–,–,–,–
"CCN=C(NCC)SCc1ccccc1SC1=C(C(=O)O)N2C(=O)[C@@H](NC(=O)Cc3ccccc3)[C@H]2SC1 [Cmpd 74, (7R)-7-[(Phenylacetyl)amino]-3-(2-N,N'-diethylisothiouroniummethylphenylthio)-3-cephem-4-carboxylate, inner salt]",< 0.25 µg/mL,32 µg/mL,1 µg/mL,< 0.25 µg/mL,> 32 µg/mL,> 32 µg/mL,> 32 µg/mL,< 0.25 µg/mL,2 µg/mL,< 0.25 µg/mL,–,–,–,–
O=C(Cc1ccccc1)N[C@@H]1C(=O)N2C(C(=O)O)=C(Sc3ccccc3CSc3ncccn3)CS[C@H]12 [Cmpd 75],< 0.25 µg/mL,32 µg/mL,1 µg/mL,< 0.25 µg/mL,> 32 µg/mL,> 32 µg/mL,> 32 µg/mL,< 0.25 µg/mL,2 µg/mL,< 0.25 µg/mL,–,–,–,–
"CNC(=N)SCc1ccccc1SC1=C(C(=O)O)N2C(=O)[C@@H](NC(=O)Cc3ccccc3)[C@H]2SC1 [Cmpd 76, (7R)-7-[(Phenylacetyl)amino]-3-(2-N-methylisothiouroniummethylphenylthio)-3-cephem-4-carboxylate, inner salt]",< 0.25 µg/mL,8 µg/mL,1 µg/mL,< 0.25 µg/mL,> 32 µg/mL,> 32 µg/mL,32 µg/mL,< 0.25 µg/mL,2 µg/mL,< 0.25 µg/mL,–,–,–,–
Cc1nnc(SCc2ccccc2SC2=C(C(=O)O)N3C(=O)[C@@H](NC(=O)Cc4ccccc4)[C@H]3SC2)s1 [Cmpd 77],< 0.25 µg/mL,32 µg/mL,1 µg/mL,< 0.25 µg/mL,> 32 µg/mL,> 32 µg/mL,> 32 µg/mL,< 0.25 µg/mL,2 µg/mL,< 0.25 µg/mL,–,–,–,–
"N#CCC(=O)N[C@@H]1C(=O)N2C(C(=O)O)=C(Sc3cccnc3-c3ccccc3)CS[C@H]12 [Cmpd 85, (7R)-7-[(Cyanoacetyl)amino]-3-(2-phenylpyridin-3-ylthio)-3-cephem-4-carboxylic acid]",< 0.25 µg/mL,16 µg/mL,4 µg/mL,< 0.25 µg/mL,> 32 µg/mL,> 32 µg/mL,16 µg/mL,< 0.25 µg/mL,2 µg/mL,< 0.25 µg/mL,–,–,–,–
"Nc1nc(/C(=N/OCCF)C(=O)N[C@@H]2C(=O)N3C(C(=O)O)=C(Sc4ccnn4-c4ccccc4)CS[C@H]23)cs1 [Cmpd 90, (7R)-7-[(Z)-2-(aminothiazol-4-yl)-2-(2-fluoroethyloxyimino)acetamido]-3-(1-N-phenylpyrazol-5-ylthio)-3-cephem-4-carboxylic acid]",–,16 µg/mL,32 µg/mL,–,16 µg/mL,4 µg/mL,32 µg/mL,1 µg/mL,16 µg/mL,–,0.5 µg/mL,1 µg/mL,< 0.25 µg/mL,–
"Nc1nc(-c2ccccc2)c(SC2=C(C(=O)O)N3C(=O)[C@@H](NC(=O)Cc4ccccc4)[C@H]3SC2)s1 [Cmpd 92, (7R)-7-[(Phenylacetyl)amino]-3-(2-amino-4-phenyl-thiazol-5-ylthio)-3-cephem-4-carboxylic acid]",< 0.25 µg/mL,16 µg/mL,16 µg/mL,< 0.25 µg/mL,> 32 µg/mL,> 32 µg/mL,8 µg/mL,< 0.25 µg/mL,16 µg/mL,< 0.25 µg/mL,–,–,–,–
"O=C(Cc1ccccc1)N[C@@H]1C(=O)N2C(C(=O)O)=C(Sc3snnc3-c3ccccc3)CS[C@H]12 [Cmpd 93, (7R)-7-[(Phenylacetyl)amino]-3-(4-phenyl-1,2,3-thiadiazol-5-ylthio)-3-cephem-4-carboxylic acid]",< 0.25 µg/mL,8 µg/mL,–,< 0.25 µg/mL,> 32 µg/mL,> 32 µg/mL,8 µg/mL,< 0.25 µg/mL,0.5 µg/mL,< 0.25 µg/mL,–,–,–,< 0.25 µg/mL
